Results taken from US5049372A, “Anticancer activities in a host by increasing blood and plasma adenosine 5'-triphosphate (ATP) levels” (priority 1988, dated 1991).

How the values were obtained:
CT26 tumors [1] = assay: Arrest of growth of CT26 tumors in CB6F1 mice (Table 2); assay type: in vivo, mouse; conditions: experiment 1; CB6F1, 10 F; 0.5 × 10^4 cells; 5 weeks; 1 ml of 50 mM i.p.
Description: (§1) The tumor cell lines employed were CT26, a mouse undifferentiated, aggressive colon carcinoma, and CAPAN-1, a well-differentiated human pancreatic adenocarcinoma. […] The cells are shown to be free of Mycoplasma contamination. Cells are cultured at 37° C. in a humidified atmosphere of 5% CO2 /95% air in MEM supplemented with antibiotics (100 units of penicillin per ml and 100 μg streptomycin per ml), L-glutamine (2 mM), non-essential amino acids (0.1 mM), sodium pyruvate (1 mM), and 10% fetal bovine serum.
In the tests, females and males CB6F1 mice (a standard F1 hybrid of BALB/C and C57BL/6) obtained from Jackson Laboratories, Bar Harbor, Maine and athymic outbred NCr nu/nu mice (males and females) from the Department of Radiation Medicine, Massachusetts General Hospital, Boston, Mass. 02114 are used. All the mice are kept for at least two weeks before inoculation of the tumors and the start of treatment and are 7-9 weeks old (CB6F1) or 6-7 weeks old (athymic nu/nu) at the start of the procedure. Animals weigh 20-25 g (females) or 23-28 g (males), are housed 5-12 per cage, and have ad libitum access to food and water. […]
Injections are administered with 30 gauge needles and the mice are lightly anesthetized with ether. […] After the tumors become palpable, tumor sizes are determined every three days. […]

CT26 tumors [2] = assay: Growth inhibition of s.c. footpad CT26 tumors in CB6F1 mice by daily i.p. adenine nucleotides (Table 1); assay type: in vivo, mouse; conditions: for Effectiveness of concentrations lower than 50 mM against CT26 footpad tumors: daily i.p. in volumes of 1.4-1.8 ml of saline, CB6F1 mice; for Effect of delaying start of treatment on tumor growth inhibition: start delayed until tumors palpable (6-10 days after inoculation); for Inhibition of tumor growth (% of saline-treated): 1 ml of 25 mM, based on tumor weights
Description: as §1
(§2) In the tests, females and males CB6F1 mice (a standard F1 hybrid of BALB/C and C57BL/6) obtained from Jackson Laboratories, Bar Harbor, Maine and athymic outbred NCr nu/nu mice (males and females) from the Department of Radiation Medicine, Massachusetts General Hospital, Boston, Mass. 02114 are used. All the mice are kept for at least two weeks before inoculation of the tumors and the start of treatment and are 7-9 weeks old (CB6F1) or 6-7 weeks old (athymic nu/nu) at the start of the procedure. Animals weigh 20-25 g (females) or 23-28 g (males), are housed 5-12 per cage, and have ad libitum access to food and water.
(§3) Tumor cells are removed from subconfluent cultures by a mild trypsin-EDTA treatment, the cell pellet is washed once with MEM without serum and the cells are suspended at the desired cell numbers in PBS (phosphate-bufferedsaline, 8 g NaCl, 0.2 g KCl, 1.15 g Na2 HPO4.7H2 O, and 0.2 g KH2 PO4 per liter). Cell suspensions are shown to be at least 90% viable by trypan blue exclusion. Mice are injected subcutaneously in the right hind footpad with tumor cells suspended in 50 μl of PBS. The regular protocol (unless otherwise stated) consists of daily i.p. injections of 1 ml of 0.85% NaCl solution or 1 ml of 50 mM of AMP, ADP, or ATP in 0.85% NaCl (from stock solutions adjusted to pH 6.2) starting one day after tumor inoculation and given for ten consecutive days.
(§4) Injections are administered with 30 gauge needles and the mice are lightly anesthetized with ether. The mice are weighed before the start of treatment and once a week during and after treatment. After the tumors become palpable, tumor sizes are determined every three days. The animals are sacrificed, tumors are excised and weighed before they reach 10% of the animals' weight.
The growth inhibitory properties of adenine nucleotides against CT26 murine colon carcinoma, which are inoculated s.c. in the hind footpad of CB6F1 mice, are illustrated in Table 1 hereinbelow. […] No significant differences between males and females are observed either in the rate of tumor growth or in the tumor's response to adenine nucleotides treatment.

CAPAN-1 xenografts = assay: Arrest of growth of CAPAN-1 xenografts in athymic nu/nu mice (Table 2); assay type: in vivo, human; conditions: 1 ml of 50 mM i.p.
Description: as §1, §2, §3, §4
The effects of AMP, ADP, and ATP on human tumor xenografts in nude mice were evaluated utilizing the pancreatic ductal adenocarcinoma CAPAN-1 (see Kyriazis AP, Kyriazis AA, Scarpelli DG, Fogh J, Rao SM, Lepera R., "Human Pancreatic Adenocarcinoma Line CAPAN-1 in Tissue Culture and the Nude Mouse", Am. J. Pathol., 1982, 106, 250-260).
Treatment schedules consist of single daily i.p. injections for 10 consecutive days, starting one day after tumor inoculation. Tumor burden is relatively low (0.5-1×10^5 cells implanted) and tumor growth is slow (tumors became palpable 4-6 weeks after inoculation).

[3] = Rate of extracellular ATP degradation by mouse blood in vitro (Table 6); assay type: in vitro ADME; conditions: 1 mM, 37° C.
Description: (§5) *Blood (450 μl) was withdrawn into a syringe containing either 50 μ
(§6) of citratedextrose or 50 μl of heparin (100 U/ml). Whole blood was the
(§7) added to 1 mM of [^3 H]ATP in saline (25 μl) and at various time
(§8) points blood aliquots (90 μl) were removed and centrifuged. Plasma (20
(§9) μl) was withdrawn and added to 1 ml of icecold trichloroacetic acid.
(§10) Thin layer chromatography on poly(ethylene)imine cellulose was performed
(§11) according to published procedures. The rate of degradation of 1 mM of
(§12) [^3 H]ATP was linear for mouse or human blood during the initial 30
(§13) minute incubation at 37° C.

[4] = Rate of extracellular ATP degradation by human blood in vitro (Table 6); assay type: in vitro ADME; conditions: 1 mM, 37° C.
Description: as §5, §6, §7, §8, §9, §10, §11, §12, §13

human subjects = conditions: slow injections or infusions of the same dose (40 mg); cited from earlier work
[5] = experiment 3, 12 M per group, 0.5 × 10^6 cells, day 13, 1 ml of 50 mM i.p. daily
[6] = experiment 4, 11 F per group, 0.5 × 10^6 cells, day 14, 1 ml of 50 mM i.p. daily
[7] = experiment 5, 12 F per group, 0.5 × 10^5 cells, day 16, 1 ml of 50 mM i.p. daily
[8] = experiment 6, 10 F per group, 0.5 × 10^5 cells, day 18, 1 ml of 50 mM i.p. daily (Ap4A 10 mM)
[9] = experiment 7, 10 F per group, 0.1 × 10^5 cells, day 22, 1 ml of 50 mM i.p. daily
[10] = experiment 7, 10 F per group, 0.1 × 10^5 cells, day 22, 1 ml of 50 mM i.p. daily, included one complete cure
[11] = experiment 4, 11 F, 0.5 × 10^5 cells, 10 weeks
[12] = experiment 5, 10 F, 0.5 × 10^5 cells, 9 weeks
[13] = experiment 1, 10 F per group, 0.5 × 10^6 cells, day 15, 1 ml of 25 mM i.p. daily
[14] = experiment 2, 10 M per group, 0.5 × 10^6 cells, day 15, 1 ml of 25 mM i.p. daily

Structure (SMILES) | Arrested tumors/implanted tumors (CT26 tumors [1]) | Effectiveness of concentrations lower than 50 mM against CT26 footpad tumors (CT26 tumors [2]) | Tumor diameter (CT26 tumors [2]; [5]) [cm] | Tumor weight (CT26 tumors [2]; [5]) [g] | Tumor diameter (CT26 tumors [2]; [6]) [cm] | Tumor weight (CT26 tumors [2]; [6]) [g] | Tumor diameter (CT26 tumors [2]; [7]) [cm] | Tumor weight (CT26 tumors [2]; [7]) [g] | Tumor diameter (CT26 tumors [2]; [8]) [cm] | Tumor weight (CT26 tumors [2]; [8]) [g] | Tumor diameter (CT26 tumors [2]; [9]) [cm] | Tumor weight (CT26 tumors [2]; [10]) [g] | Most effective pH of the i.p. solution for inhibition of tumor growth (CT26 tumors [2]) | Effect of delaying start of treatment on tumor growth inhibition (CT26 tumors [2]) | Arrested tumors/implanted tumors (CAPAN-1 xenografts; [11]) | Arrested tumors/implanted tumors (CAPAN-1 xenografts; [12]) | also measured
Nc1ncnc2c1ncn2[C@@H]1O[C@H](COP(=O)(O)O)[C@@H](O)[C@H]1O [AMP, adenosine 5'-monophosphate] | 2/10 | as effective | 1.2 ± 0.2 | 0.65 ± 0.21 | 1.0 ± 0.3 | 0.88 ± 0.31 | 0.6 ± 0.2 | 0.41 ± 0.18 | 0.8 ± 0.2 | 0.56 ± 0.21 | 0.9 ± 0.5 | 0.51 ± 0.28 | 5.5-6.2 | without any significant effects on the magnitude of tumor growth inhibition | 7/11 | 6/10 | 
Nc1ncnc2c1ncn2[C@@H]1O[C@H](COP(=O)(O)OP(=O)(O)OP(=O)(O)O)[C@@H](O)[C@H]1O [ATP, adenosine 5'-triphosphate] | 4/10 | as effective | 1.2 ± 0.2 | 0.70 ± 0.18 | 1.0 ± 0.2 | 0.84 ± 0.23 | 0.5 ± 0.1 | 0.38 ± 0.10 | 0.8 ± 0.1 | 0.51 ± 0.18 | 0.9 ± 0.5 | 0.68 ± 0.36 | 5.5-6.2 | without any significant effects on the magnitude of tumor growth inhibition | 8/11 | 8/10 | Rate of extracellular ATP degradation ([3]; citrate): 6.87 pmol/µL/min; Rate of extracellular ATP degradation ([3]; heparin): 10.21 pmol/µL/min; Rate of extracellular ATP degradation ([4]; citrate): 1.75 pmol/µL/min; Rate of extracellular ATP degradation ([4]; heparin): 4.07 pmol/µL/min; Tumor diameter (CT26 tumors [2]; [13]): 1.3 ± 0.2 cm; Tumor weight (CT26 tumors [2]; [13]): 1.34 ± 0.33 g; Inhibition of tumor growth (% of saline-treated) (CT26 tumors [2]; experiment 1, 10 F per group, 0.5 × 10^6 cells, day 15): 31%; Tumor diameter (CT26 tumors [2]; [14]): 1.4 ± 0.2 cm; Tumor weight (CT26 tumors [2]; [14]): 1.30 ± 0.29 g; Inhibition of tumor growth (% of saline-treated) (CT26 tumors [2]; experiment 2, 10 M per group, 0.5 × 10^6 cells, day 15): 30%; Response to slow injection or infusion in human subjects (human subjects): much lesser or no response at all; Arrested tumors/implanted tumors (CAPAN-1 xenografts; experiment 2, 5 F, 1 × 10^5 cells, 7 weeks): 4/5; Arrested tumors/implanted tumors (CAPAN-1 xenografts; experiment 3, 5 F, 1 × 10^5 cells, 6 weeks): 3/5
